Assay results published in patent publication US20240246942A1, “KINASE INHIBITORS FOR THE TREATMENT OF NEURODEGENERATIVE DISEASES” (priority 2020, published 2024).

Assays:
Assay in all cases: biochemical
[1] = molecular target: T1, panel of 374 wild-type kinases (Homo sapiens, UniProt O00311); conditions: read-out: % Enzyme Activity (relative to DMSO controls), CDC7/DBF4
T1 construct: purchased Reaction Biology Corporation

[2] = molecular target: T2, panel of 374 wild-type kinases (Homo sapiens, UniProt P20794); conditions: read-out: % Enzyme Activity (relative to DMSO controls), MAK
T2 construct: purchased Reaction Biology Corporation
T2 sequence (P20794 1-623): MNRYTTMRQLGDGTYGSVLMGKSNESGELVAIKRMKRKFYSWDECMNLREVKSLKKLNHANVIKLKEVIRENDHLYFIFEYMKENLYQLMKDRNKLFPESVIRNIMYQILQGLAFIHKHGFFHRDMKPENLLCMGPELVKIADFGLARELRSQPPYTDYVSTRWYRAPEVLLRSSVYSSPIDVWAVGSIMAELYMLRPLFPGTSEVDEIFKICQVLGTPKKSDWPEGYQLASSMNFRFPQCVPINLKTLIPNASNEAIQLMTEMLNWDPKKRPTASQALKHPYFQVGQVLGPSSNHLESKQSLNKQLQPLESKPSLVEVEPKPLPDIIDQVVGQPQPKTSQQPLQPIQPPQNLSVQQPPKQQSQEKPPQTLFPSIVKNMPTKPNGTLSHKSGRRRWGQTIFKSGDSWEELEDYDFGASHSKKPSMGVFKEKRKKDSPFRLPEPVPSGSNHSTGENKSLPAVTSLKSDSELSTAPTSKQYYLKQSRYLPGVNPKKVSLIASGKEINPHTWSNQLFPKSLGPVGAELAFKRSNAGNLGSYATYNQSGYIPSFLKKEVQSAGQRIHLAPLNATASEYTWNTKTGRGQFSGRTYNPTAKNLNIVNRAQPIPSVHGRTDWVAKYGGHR

[3] = molecular target: T3, panel of 374 wild-type kinases (Homo sapiens, UniProt P24723); conditions: read-out: % Enzyme Activity (relative to DMSO controls), kinase PKCeta
T3 construct: purchased Reaction Biology Corporation

[4] = molecular target: T4, panel of 374 wild-type kinases (Homo sapiens, UniProt P42679); conditions: read-out: % Enzyme Activity (relative to DMSO controls), CTK/MATK
T4 construct: purchased Reaction Biology Corporation
T4 sequence (P42679 1-507): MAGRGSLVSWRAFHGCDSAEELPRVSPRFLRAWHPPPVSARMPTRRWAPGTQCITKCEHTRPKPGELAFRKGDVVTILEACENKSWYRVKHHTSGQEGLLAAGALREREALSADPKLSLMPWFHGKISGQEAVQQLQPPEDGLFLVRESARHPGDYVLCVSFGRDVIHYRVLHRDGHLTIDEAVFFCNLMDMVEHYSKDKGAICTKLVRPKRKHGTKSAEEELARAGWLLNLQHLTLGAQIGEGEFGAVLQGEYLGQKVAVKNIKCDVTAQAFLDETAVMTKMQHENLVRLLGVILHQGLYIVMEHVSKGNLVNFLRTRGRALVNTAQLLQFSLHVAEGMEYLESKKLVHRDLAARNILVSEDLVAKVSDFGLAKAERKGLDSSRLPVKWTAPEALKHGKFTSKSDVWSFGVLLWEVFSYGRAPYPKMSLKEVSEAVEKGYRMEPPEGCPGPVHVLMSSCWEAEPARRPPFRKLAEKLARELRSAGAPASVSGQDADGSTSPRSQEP

[5] = molecular target: T5, panel of 374 wild-type kinases (Homo sapiens, UniProt P48729); conditions: read-out: % Enzyme Activity (relative to DMSO controls), CK1a1
T5 construct: purchased Reaction Biology Corporation

[6] = molecular target: T6, panel of 374 wild-type kinases (Homo sapiens, UniProt P78362); conditions: read-out: % Enzyme Activity (relative to DMSO controls), kinase SRPK2
T6 construct: purchased Reaction Biology Corporation

[7] = molecular target: T7, panel of 374 wild-type kinases (Homo sapiens, UniProt Q6IQ55); conditions: read-out: % Enzyme Activity (relative to DMSO controls), kinase TTBK2
T7 construct: purchased Reaction Biology Corporation

[8] = molecular target: T8, panel of 374 wild-type kinases (Homo sapiens, UniProt Q8IVH8); conditions: read-out: % Enzyme Activity (relative to DMSO controls), GLK/MAP4K3
T8 construct: purchased Reaction Biology Corporation
T8 sequence (Q8IVH8 1-894): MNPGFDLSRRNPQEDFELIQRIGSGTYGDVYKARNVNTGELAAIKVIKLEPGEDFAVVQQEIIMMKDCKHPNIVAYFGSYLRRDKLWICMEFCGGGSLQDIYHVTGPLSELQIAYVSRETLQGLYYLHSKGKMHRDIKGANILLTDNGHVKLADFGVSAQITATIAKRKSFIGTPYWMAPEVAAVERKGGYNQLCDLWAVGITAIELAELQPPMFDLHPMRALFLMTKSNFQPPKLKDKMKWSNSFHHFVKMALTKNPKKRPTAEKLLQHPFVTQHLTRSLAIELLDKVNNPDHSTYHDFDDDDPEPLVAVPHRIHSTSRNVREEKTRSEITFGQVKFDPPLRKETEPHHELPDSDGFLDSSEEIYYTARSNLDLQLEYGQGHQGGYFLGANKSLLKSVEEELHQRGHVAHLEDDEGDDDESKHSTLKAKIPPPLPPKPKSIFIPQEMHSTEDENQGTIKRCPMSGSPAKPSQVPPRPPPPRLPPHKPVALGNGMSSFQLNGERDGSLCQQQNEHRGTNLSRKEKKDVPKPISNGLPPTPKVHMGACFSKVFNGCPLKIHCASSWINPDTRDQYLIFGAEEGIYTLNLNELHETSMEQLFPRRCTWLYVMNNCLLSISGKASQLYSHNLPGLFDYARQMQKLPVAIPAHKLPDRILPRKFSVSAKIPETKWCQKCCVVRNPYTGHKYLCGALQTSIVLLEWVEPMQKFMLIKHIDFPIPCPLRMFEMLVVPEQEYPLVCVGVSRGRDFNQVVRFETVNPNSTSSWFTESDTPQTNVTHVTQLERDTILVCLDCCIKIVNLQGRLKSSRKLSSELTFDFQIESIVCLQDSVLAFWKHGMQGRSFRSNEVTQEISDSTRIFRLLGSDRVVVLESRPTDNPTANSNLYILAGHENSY

T5 sequence (P48729 whole entry): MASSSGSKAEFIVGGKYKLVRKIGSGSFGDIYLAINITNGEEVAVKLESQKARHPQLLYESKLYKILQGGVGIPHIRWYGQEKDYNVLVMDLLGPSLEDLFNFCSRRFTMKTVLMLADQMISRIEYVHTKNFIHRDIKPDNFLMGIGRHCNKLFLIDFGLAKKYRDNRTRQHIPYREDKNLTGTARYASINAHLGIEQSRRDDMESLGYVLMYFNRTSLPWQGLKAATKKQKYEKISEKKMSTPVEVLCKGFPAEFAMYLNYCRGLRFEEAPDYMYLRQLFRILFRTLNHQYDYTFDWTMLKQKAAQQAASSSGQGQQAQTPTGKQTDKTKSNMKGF
T1 sequence (O00311 whole entry): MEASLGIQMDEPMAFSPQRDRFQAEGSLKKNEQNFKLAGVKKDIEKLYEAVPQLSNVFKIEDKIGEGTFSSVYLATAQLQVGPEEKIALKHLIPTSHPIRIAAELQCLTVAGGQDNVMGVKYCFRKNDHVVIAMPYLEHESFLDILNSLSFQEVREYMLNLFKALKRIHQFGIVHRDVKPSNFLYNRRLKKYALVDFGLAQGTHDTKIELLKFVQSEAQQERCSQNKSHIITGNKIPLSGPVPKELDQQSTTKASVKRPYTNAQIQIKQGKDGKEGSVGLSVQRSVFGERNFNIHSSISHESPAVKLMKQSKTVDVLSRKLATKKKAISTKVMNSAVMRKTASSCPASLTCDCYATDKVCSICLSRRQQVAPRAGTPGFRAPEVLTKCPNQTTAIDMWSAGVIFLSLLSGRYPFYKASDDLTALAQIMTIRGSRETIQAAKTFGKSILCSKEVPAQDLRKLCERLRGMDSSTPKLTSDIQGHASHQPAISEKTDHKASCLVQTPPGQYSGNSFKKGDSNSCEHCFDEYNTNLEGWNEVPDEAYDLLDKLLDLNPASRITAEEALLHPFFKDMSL
T6 sequence (P78362 whole entry): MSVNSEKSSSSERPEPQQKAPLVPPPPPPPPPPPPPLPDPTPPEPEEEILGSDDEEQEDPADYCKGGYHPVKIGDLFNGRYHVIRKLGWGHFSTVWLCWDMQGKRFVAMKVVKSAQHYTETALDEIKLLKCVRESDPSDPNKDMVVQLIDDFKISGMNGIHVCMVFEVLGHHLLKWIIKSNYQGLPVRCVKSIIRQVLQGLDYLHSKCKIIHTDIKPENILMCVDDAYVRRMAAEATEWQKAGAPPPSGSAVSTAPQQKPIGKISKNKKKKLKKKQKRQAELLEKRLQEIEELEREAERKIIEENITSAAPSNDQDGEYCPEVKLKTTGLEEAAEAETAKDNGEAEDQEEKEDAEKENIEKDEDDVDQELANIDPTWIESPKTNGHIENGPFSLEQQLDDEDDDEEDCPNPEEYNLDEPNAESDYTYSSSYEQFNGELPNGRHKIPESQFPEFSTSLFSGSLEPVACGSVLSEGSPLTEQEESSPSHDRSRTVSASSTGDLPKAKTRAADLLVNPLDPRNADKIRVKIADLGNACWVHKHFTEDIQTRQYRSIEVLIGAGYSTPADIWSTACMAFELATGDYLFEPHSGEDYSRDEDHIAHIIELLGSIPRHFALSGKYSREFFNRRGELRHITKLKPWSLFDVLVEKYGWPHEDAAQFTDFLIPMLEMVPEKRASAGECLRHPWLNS
T7 sequence (Q6IQ55 whole entry): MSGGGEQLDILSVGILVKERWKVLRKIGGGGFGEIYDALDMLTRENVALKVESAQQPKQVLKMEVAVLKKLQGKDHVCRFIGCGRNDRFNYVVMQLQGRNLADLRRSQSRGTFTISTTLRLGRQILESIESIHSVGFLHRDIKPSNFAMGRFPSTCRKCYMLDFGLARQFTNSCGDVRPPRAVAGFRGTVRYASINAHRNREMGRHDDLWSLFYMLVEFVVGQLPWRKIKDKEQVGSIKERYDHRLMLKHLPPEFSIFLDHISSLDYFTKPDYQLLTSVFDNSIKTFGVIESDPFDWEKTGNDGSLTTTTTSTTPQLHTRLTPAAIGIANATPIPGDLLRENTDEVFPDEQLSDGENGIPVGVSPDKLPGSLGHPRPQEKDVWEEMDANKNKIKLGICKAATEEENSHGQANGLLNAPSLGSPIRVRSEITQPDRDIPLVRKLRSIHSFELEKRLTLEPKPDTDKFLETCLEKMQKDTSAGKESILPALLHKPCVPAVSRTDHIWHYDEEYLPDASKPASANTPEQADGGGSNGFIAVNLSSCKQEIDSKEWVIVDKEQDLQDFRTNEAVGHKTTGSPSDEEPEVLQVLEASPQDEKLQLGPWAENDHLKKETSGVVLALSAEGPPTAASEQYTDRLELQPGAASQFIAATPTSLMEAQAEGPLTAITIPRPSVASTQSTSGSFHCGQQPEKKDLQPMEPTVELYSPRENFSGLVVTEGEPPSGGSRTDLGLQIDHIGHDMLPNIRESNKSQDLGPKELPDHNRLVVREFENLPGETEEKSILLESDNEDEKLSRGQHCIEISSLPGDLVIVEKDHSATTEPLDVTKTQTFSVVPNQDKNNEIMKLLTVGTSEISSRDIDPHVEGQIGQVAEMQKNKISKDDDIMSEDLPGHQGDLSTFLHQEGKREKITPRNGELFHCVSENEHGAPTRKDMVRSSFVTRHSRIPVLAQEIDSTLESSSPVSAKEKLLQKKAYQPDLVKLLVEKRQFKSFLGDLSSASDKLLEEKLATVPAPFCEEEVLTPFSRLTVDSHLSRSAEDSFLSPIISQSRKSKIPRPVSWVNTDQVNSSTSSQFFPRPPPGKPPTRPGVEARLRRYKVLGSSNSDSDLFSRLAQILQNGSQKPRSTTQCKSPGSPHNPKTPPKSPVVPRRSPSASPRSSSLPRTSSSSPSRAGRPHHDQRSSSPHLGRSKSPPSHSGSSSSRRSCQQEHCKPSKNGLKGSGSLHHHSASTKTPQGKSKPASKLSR
T3 sequence (P24723 whole entry): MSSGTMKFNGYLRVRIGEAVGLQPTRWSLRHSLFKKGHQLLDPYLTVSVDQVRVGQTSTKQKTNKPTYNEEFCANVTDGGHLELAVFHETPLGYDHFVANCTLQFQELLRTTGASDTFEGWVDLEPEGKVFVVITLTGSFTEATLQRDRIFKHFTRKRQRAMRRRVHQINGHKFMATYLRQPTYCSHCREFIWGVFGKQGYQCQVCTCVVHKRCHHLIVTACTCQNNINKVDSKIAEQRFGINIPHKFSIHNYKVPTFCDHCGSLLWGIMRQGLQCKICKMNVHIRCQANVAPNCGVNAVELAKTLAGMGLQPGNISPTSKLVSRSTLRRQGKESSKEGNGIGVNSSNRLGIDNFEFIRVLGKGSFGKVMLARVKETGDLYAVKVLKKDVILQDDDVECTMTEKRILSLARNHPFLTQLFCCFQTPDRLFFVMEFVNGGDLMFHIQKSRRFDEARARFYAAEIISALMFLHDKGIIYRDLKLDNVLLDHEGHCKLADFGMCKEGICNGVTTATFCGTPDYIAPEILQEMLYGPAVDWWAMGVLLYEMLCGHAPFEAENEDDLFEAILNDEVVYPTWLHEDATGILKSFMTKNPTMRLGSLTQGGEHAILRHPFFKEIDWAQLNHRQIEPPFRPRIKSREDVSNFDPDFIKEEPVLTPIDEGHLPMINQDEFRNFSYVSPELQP

SMILES	remaining activity at 10 µM ([1]; 10 uM)	remaining activity at 10 µM ([2]; 10 uM)	remaining activity at 10 µM ([3]; 10 uM)	remaining activity at 10 µM ([4]; 10 uM)	remaining activity at 10 µM ([5]; 10 uM)	remaining activity at 10 µM ([6]; 10 uM)	remaining activity at 10 µM ([7]; 10 uM)	remaining activity at 10 µM ([8]; 10 uM)	remaining activity at 5 µM [1]	remaining activity at 5 µM [2]	remaining activity at 5 µM [3]	remaining activity at 5 µM [4]	remaining activity at 5 µM [5]	remaining activity at 5 µM [6]	remaining activity at 5 µM [7]	remaining activity at 5 µM [8]
Cc1sc(C(=O)NC2COC2)cc1-n1cc(NC(=O)Nc2c(F)cccc2Cl)cn1 [Compound 27, 4-(4-(3-(2-chloro-6-fluorophenyl)ureido)-1H-pyrazol-1-yl)-5-methyl-N-(oxetan-3-yl)thiophene-2-carboxamide]	107%	120%	91.6%	97.8%	81.1%	114%	97.6%	118%	–	–	–	–	–	–	–	–
O=C(Nc1cnn(-c2csc(C(=O)NC3COC3)c2)c1)Nc1c(F)cccc1Cl [Compound 25, 4-(4-(3-(2-chloro-6-fluorophenyl)ureido)-1H-pyrazol-1-yl)-N-(oxetan-3-yl)thiophene-2-carboxamide]	–	–	–	–	–	–	–	–	84.3%	97.6%	99%	100%	76.6%	94%	104%	100%
O=C(Nc1cnn(-c2csc(C(=O)NC3COC3)c2)c1)Nc1ccccc1Cl [Compound 17, 4-(4-(3-(2-chlorophenyl)ureido)-1H-pyrazol-1-yl)-N-(oxetan-3-yl)thiophene-2-carboxamide]	–	–	–	–	–	–	–	–	111%	98.8%	103%	99.7%	98.5%	95.6%	107%	97.5%
